PMC11990524, “Design and Synthesis of Novel 6-(Substituted phenyl)-[1,3]dioxolo[4′,5′:4,5]benzo[1,2-d]thiazole Compounds as Tyrosinase Inhibitors: In Vitro and In Vivo Insights” (Molecules, 2025)

What was measured:
B16F10 cell tyrosinase = target: T1, B16F10 cell tyrosinase (Mus musculus, UniProt P11344); test: In situ cellular tyrosinase activity assay using B16F10 cells; type: cell-based, murine
T1 construct: endogenous in cells; host or cells: B16F10 murine cells, stimulated with α-MSH and IBMX
T1 sequence (P11344 19-533): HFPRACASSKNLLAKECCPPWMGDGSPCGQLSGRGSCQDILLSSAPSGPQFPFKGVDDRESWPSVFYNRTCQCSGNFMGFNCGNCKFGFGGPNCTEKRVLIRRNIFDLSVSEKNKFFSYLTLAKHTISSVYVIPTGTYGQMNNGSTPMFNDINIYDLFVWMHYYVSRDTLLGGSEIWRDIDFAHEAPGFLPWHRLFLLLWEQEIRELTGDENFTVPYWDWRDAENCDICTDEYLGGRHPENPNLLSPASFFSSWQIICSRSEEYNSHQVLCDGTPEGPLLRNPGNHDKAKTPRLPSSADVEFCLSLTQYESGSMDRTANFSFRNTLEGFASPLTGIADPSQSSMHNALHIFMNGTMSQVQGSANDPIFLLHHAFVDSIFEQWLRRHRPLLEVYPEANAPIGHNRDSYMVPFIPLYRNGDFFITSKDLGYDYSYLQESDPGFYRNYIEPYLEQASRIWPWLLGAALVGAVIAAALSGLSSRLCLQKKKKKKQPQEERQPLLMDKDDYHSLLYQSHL
Procedure: After 72 h of incubation, the cells were treated with an excessive amount of L-dopa for 2 h, and then the melanin-stained cells were photographed, and the pigmented areas of the cells were determined using an ATTO CS Analyzer (ATTO, Tokyo, Japan).
B16F10 (3 × 10^3 cells/well) cells in a 24-well plate were incubated for 24 h in a 5% CO2 incubator maintained at 37 °C. […] Stimulators (α-MSH and IBMX; 1 μM and 200 μM, respectively) were exposed to cells 1 h after treatment with the test sample, and the cells were incubated for 72 h in a 5% CO2 incubator. The cells were fixed for 40 min using paraformaldehyde solution (4%) (Sigma-Aldrich, St. Louis, MO, USA), washed with PBS (pH 7.4), and permeabilized for 2 min using Triton X-100 (0.1%). After washing twice with PBS, each well was exposed to L-dopa solution (500 μL; 2 mM). After incubation for 2 h, images of the cells stained with excess melanin were obtained using a camera connected to a microscope (Motic, Hong Kong).

HaCaT cells = test: Cytotoxicity assay on HaCaT cells (EZ-Cytox); type: cell-based, human; details: 1, 2, 5, 10, and 20 μM, 24 h
Procedure: In addition to melanocytes, keratinocytes are the primary cells present in the epidermis. […] Each compound was treated at concentrations of 0, 1, 2, 5, 10, and 20 μM for 24 h, and cell viability was measured using the EZ-Cytox solution.
The effect of compounds 5 and 9 on cell viability of HaCaT and B16F10 cells was assessed using an EZ-Cytox solution (EZ-1000®, DoGenBio, Seoul, Republic of Korea). HaCaT (5 × 10^3 cells/well) and B16F10 (1 × 10^3 cells/well) cells were seeded in a 96-well plate, respectively, and cultured for 24 h under the same conditions as the cell culture. Each well was treated with 5 and 9 at 0, 1, 2, and 5 μM for B16F10 cells and 0, 1, 2, 5, 10, and 20 μM for HaCaT cells. The plates were incubated for 72 h for B16F10 cells and 24 h for HaCaT cells under a CO2 incubator. Each well was treated with the EZ-Cytox solution (10 μL), and the plate was left for 2 h under a CO2 incubator. Well optical density was measured at 450 nm to determine cytotoxicity.

mushroom tyrosinase = mushroom tyrosinase (Agaricus bisporus, UniProt C7FF04); test: Mushroom tyrosinase inhibitory activity assay (L-dopa or L-tyrosine as substrate); type: biochemical
Procedure: In the inhibition experiments, L-dopa and L-tyrosine were used as enzyme substrates.
The plate was incubated at 37 °C for 30 min, and absorbance of dopachrome formation was recorded spectrophotometrically at 475 nm using a VersaMax® Elisa (VE) microplate reader (Molecular Devices, San Jose, CA, USA) to determine tyrosinase inhibition activity. A VE microplate reader was used in all subsequent experiments to measure optical density. All experiments were carried out independently three times.

Sequence of mushroom tyrosinase (C7FF04 2-392): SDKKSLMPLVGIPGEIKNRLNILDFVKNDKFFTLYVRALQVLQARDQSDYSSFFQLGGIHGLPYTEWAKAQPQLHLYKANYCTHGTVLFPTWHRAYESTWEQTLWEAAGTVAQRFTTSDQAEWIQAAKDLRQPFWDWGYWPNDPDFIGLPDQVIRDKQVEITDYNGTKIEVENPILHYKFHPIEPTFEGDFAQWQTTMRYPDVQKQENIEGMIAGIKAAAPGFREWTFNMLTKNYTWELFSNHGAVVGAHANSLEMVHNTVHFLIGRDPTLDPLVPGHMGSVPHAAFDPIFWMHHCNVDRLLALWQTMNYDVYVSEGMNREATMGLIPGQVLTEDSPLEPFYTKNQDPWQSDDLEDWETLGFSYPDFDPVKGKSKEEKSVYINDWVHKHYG

## Oc1ccc(-c2nc3cc4c(cc3s2)OCO4)c(O)c1 [Compound 9, 4-([1,3]Dioxolo[4′,5′:4,5]benzo[1,2-d]thiazol-6-yl)benzene-1,3-diol]
B16F10 cell tyrosinase; 5 μM
  melanin production-inhibitory potency in situ, comparison: greater than that of 5
B16F10 cell tyrosinase; 1, 2, and 5 μM, IBMX plus α-MSH, 72 h, L-dopa 2 h
  number of cells strongly stained with melanin (in situ tyrosinase): evidently reduced the number of cells strongly stained with melanin
HaCaT cells
  cytotoxicity (cell viability): None of the compounds revealed significant cytotoxicity up to 20 μM
Mushroom tyrosinase; L-dopa and L-tyrosine
  IC50 values regardless of the substrate used (in words): nanomolar
Mushroom tyrosinase; substrate L-dopa, 2.0 μM, read-out: Inhibition (%) measured at 2.0 μM (converted)
  inhibition at 2 µM: 76.1%
Mushroom tyrosinase; substrate L-tyrosine, 0.4 μM, read-out: Inhibition (%) measured at 0.4 μM (converted)
  inhibition at 0.4 µM: 71.8%
